Assay: Inhibition of MYC in chicken embryonic fibroblasts assessed as reduction in transformed cell foci with repeated addition of compounds every second day and measured after 1 to 3 weeks by crystal violet staining based analysis

IC50: 3 µM
Structure (SMILES): Cc1cc(N2CCCCC2)nc2ccc(Cc3ccc4nc(N5CCCCC5)cc(C)c4c3)cc12
